Assay [1] addresses T1, biotinylated truncated STAT6 (123-632)-avi (Homo sapiens, UniProt P42226).
T1 construct: biotinylated truncated STAT6 (123-632)-avi purified from E. coli; made in house; host or cells: E. coli
T1 sequence (P42226 123-632 limits assumed): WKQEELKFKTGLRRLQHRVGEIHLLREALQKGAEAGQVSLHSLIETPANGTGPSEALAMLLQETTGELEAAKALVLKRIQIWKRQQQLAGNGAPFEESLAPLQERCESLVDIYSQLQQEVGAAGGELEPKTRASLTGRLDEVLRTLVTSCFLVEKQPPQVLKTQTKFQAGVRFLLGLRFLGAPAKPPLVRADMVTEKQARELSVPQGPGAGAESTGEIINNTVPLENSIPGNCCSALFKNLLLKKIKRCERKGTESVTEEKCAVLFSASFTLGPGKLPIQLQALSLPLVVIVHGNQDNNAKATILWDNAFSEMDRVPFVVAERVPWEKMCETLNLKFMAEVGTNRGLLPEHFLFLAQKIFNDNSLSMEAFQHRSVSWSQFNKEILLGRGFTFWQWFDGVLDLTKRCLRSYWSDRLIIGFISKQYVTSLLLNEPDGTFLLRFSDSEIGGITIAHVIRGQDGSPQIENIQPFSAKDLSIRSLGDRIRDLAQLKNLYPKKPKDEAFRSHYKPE
The assay can be described thus: STAT6 HTRF binding assay. To be noted: 0.15 nM biotinylated truncated STAT6 (123-632)-avi, 20 nM fluorescein-labeled probe. As to the method: HTRF binding assays were performed using 0.15 nM biotinylated truncated STAT6 (123-632)-avi purified from E. coli, 1× Streptavidin-terbium (CisBio) prepared by mixing SA-Tb in PPI detection buffer (CisBio), 20 nM proprietary fluorescein-labeled probe, and test compounds in assay buffer consisting of 50 mM HEPES-Na pH 7.5, 100 mM NaCl, 1 mM EDTA, 2 mM DTT, 0.1% Tween-20 with a final volume of 20 uL. Compound stocks were dissolved at 10 mM in 100% DMSO and 11 point titration with 3 fold serial dilution was performed in white, opaque 384 well microplates. Reaction plates were incubated at room temperature for 30 minutes. Plates were centrifuged at low rpm for 5 mins, and the ratio of fluorescence intensities were measured at emission wavelengths for fluorescein acceptor (520 nm) and terbium donor (495 nm) on Envision Plate reader. % Inhibition was calculated from the 520/495 ratio generated by using proprietary positive control compound for 100% inhibition and DMSO only reactions for 0% inhibition. Data was processed and dose response curves were generated using GraphPad Prism to determine the concentration required for inhibiting 50% of the HTRF signal (IC50).
The letter codes for IC50 (μM) include: A (<0.1 μM); B (0.1-1 μM); C (>1-10 μM); D (>10-100 μM); E (>100 μM); and F (not tested).

Another assay has as its target T2, STAT6 (Homo sapiens, UniProt P42226).
T2 construct: endogenous in cells; host or cells: A549
T2 sequence (P42226 1-847): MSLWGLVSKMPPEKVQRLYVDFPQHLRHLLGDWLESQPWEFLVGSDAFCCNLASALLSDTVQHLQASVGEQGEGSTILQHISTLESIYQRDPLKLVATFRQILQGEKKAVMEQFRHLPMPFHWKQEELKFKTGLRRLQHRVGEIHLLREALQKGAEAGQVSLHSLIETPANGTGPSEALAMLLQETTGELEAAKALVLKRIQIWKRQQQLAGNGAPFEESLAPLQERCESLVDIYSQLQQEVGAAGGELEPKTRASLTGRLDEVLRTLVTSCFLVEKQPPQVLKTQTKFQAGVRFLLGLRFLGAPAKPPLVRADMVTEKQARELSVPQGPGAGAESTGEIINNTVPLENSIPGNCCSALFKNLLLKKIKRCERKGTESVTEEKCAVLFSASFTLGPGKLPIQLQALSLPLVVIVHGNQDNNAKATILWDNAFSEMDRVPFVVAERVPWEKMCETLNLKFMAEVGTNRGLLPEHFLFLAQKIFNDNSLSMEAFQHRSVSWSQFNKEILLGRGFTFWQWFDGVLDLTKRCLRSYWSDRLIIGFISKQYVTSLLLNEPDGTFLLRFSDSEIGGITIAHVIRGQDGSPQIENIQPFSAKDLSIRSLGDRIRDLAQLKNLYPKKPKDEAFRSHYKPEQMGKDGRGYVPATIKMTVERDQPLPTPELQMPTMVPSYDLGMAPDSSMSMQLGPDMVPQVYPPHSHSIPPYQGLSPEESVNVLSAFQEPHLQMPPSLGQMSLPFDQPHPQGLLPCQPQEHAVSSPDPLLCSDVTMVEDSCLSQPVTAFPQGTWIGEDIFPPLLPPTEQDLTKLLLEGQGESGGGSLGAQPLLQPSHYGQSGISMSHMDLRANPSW
The assay can be described thus: STAT6 MSD degradation in A549 cells. Conditions: 24 h. It is filed as cell-based. Here is the method: Degradation of STAT6 in cells was quantitatively measured using Meso Scale Discovery (MSD) technology. A549 cells were seeded in 96-well plates with a density of 1.5×10e4 to 5×10e5 cells per well in 100 μl fresh media. Compounds were then added to the assay plates with a final top concentration of up to 10 uM in a 1:3 dilution series with total of 9 doses. The assay plates were then incubated for 4 to 24 hours at 37° C. under 5% CO2. The assay plates were then centrifuged for 5 minutes and the cell pellets were treated with 100 μl/well RIPA lysis buffer (Boston Bioproducts, BP-115D) with protease and phosphatase inhibitors (Roche, 05892791001 and 04906837001). To prepare the MSD assay plates (MSD, L15XA), the plates were coated with the capture antibody (Abnova, H00006778) in PBS, at 40 μl/well. The plates were then incubated overnight at 4° C., washed 1 time with 150 μl/well TBST buffer (Cell Signaling Technology, #9997S) and blocked with 150 μl/well blocking buffer (MSD, R93BA-4). Cell lysates were then added to MSD assay plates and the plates were incubated at room temperature for 1 hour. The plates were then washed 3 times with 150 μl/well TBST buffer and 25 μl/well primary detection antibody (Cell Signaling Technology, #5397S). The assay plates were then incubated at room temperature for 1 hour, washed 3 times with 150 μl/well TBST buffer, and 25 μl/well secondary detection antibody, SULFO-TAG anti-rabbit antibody (MSD, R32AB-1) were added. The assay plates were then incubated at room temperature for 1 hour, washed 3 times with 150 μl/well TBST buffer, and 150 μl/well MSD reading buffer (MSD, R92TC-2) were added. The plates were then analyzed by an MSD reader. The data was analyzed by GraphPad Prism and the dose dependent STAT6 degradation was fit using the four-parameter inhibitor vs. response nonlinear regression.
The letter codes for DC50 (nM) include: A (<1 nM); B (1-10 nM); C (>10-100 nM); D (>100-1000 nM); E (>1000 nM); and F (not tested). The letter codes for Dmax (oo) include: A (>90%); B (>70-90%); C (>50-70%); D ([…]); and F (not tested).

pIC50: −log10 of the molar value. Some results are limits rather than exact numbers.

The molecule `CN(C)C(=O)c1cc2c(F)c(C3CCCN(C(=O)CCn4cccn4)C3)cc(-c3ccc(N4CCN(CCc5ccc(C6CCC(=O)NC6=O)c(Cl)c5)CC4)cc3)c2o1` (single isomer, unassigned) [Example I-281] gave a pIC50 in assay [1] (30 minutes at room temperature) of 6.00 to 7.00. In addition, on STAT6, the DC50 was in the range of 10 to 100 nM and the greatest degradation seen (Dmax) lay within 70 to 90%.
Regarding `CN(C)C(=O)c1cc2c(-c3ccc(C4CCN(c5ccc([C@@H]6CCC(=O)NC6=O)cc5F)CC4)cc3)cc(C3=CCCN(C(=O)CCn4cccn4)C3)c(F)c2[nH]1` (single isomer, unassigned) [Example I-742], the negative logarithm of the IC50 (pIC50) in assay [1] (HTRF binding) was > 7.00. For the same molecule, on STAT6, the DC50 is < 1 nM and the Dmax is > 90%.
For `CN(C)C(=O)c1cc2c(-c3ccc(C4CCN(c5ccc([C@H]6CCC(=O)NC6=O)cc5F)CC4)cc3)cc(C3=CCCN(C(=O)CCn4cccn4)C3)c(F)c2[nH]1` (single isomer, unassigned) [Example I-743], the pIC50 in assay [1] (HTRF binding) is > 7.00. On STAT6, the DC50 was < 1 nM and the Dmax is > 90%.
`COc1cc(N2CCN(c3ccc(-c4cc(C5=CCCN(C(=O)CCn6cccn6)C5)c(F)c5[nH]c(C(=O)N(C)C)cc45)c(F)c3F)CC2)c(F)cc1N[C@@H]1CCC(=O)NC1=O` (single isomer, unassigned) [Example I-744]: the pIC50 in assay [1] (HTRF binding) was > 7.00. Moreover, at STAT6, the 50% degradation concentration (DC50) was < 1 nM and the Dmax was > 90%.
The corresponding values for `COc1cc(N2CCN(c3ccc(-c4cc(C5=CCCN(C(=O)CCn6cccn6)C5)c(F)c5[nH]c(C(=O)N(C)C)cc45)c(F)c3F)CC2)c(F)cc1N[C@H]1CCC(=O)NC1=O` (single isomer, unassigned) [Example I-745] are > 7.00, < 1 nM and > 90%.
`Cc1cc(C2CCN(c3cccc4c3n(C)c(=O)n4[C@@H]3CCC(=O)NC3=O)CC2)ccc1-c1cc(C2=CCCN(C(=O)C(C)C)C2)c(F)c2[nH]c(C(=O)N(C)C)cc12` (single isomer, unassigned) [Example I-790] showed a pIC50 in assay [1] (HTRF binding) of 5.00 to 6.00. In addition, at STAT6, the DC50 lay within 1 to 10 nM and the Dmax was > 90%.
On the same counts, the results for `Cc1cc(C2CCN(c3cccc4c3n(C)c(=O)n4[C@H]3CCC(=O)NC3=O)CC2)ccc1-c1cc(C2=CCCN(C(=O)C(C)C)C2)c(F)c2[nH]c(C(=O)N(C)C)cc12` (single isomer, unassigned) [Example I-791] are 5.00 to 6.00, < 1 nM and > 90%.
As to `COc1cc(N2CCC(c3ccc(-c4cc(C5=CCCN(C(=O)CCn6cccn6)C5)c(F)c5[nH]c(C(=O)N(C)C)cc45)c(OC(F)(F)F)c3)CC2)c(F)cc1N[C@@H]1CCC(=O)NC1=O` (single isomer, unassigned) [Example I-792], the pIC50 in assay [1] (HTRF binding) is > 7.00. At STAT6, this molecule returned a DC50 of 1 to 10 nM and a Dmax of 70 to 90%.
For the molecule `COc1cc(N2CCC(c3ccc(-c4cc(C5=CCCN(C(=O)CCn6cccn6)C5)c(F)c5[nH]c(C(=O)N(C)C)cc45)c(OC(F)(F)F)c3)CC2)c(F)cc1N[C@H]1CCC(=O)NC1=O` (single isomer, unassigned) [Example I-793], in assay [1] (HTRF binding), the pIC50 is > 7.00. At STAT6, this molecule had a DC50 of 1 to 10 nM and a Dmax of 70 to 90%.
With `COc1cc(N2CCN(c3ccc(-c4cc(C5=CCCN(C(=O)CCn6cccn6)C5)c(F)c5[nH]c(C(=O)N(C)C)cc45)cc3)CC2)c(F)cc1N[C@@H]1CCC(=O)NC1=O` (single isomer, unassigned) [Example I-794], at STAT6, the DC50 is < 1 nM and the Dmax was 70 to 90%.
Consider `COc1cc(N2CCN(c3ccc(-c4cc(C5=CCCN(C(=O)CCn6cccn6)C5)c(F)c5[nH]c(C(=O)N(C)C)cc45)cc3)CC2)c(F)cc1N[C@H]1CCC(=O)NC1=O` (single isomer, unassigned) [Example I-795], for which, in assay [1] (HTRF binding), the negative-log IC50 (pIC50) is > 7.00. In addition, on STAT6, the DC50 was < 1 nM and the Dmax was > 90%.
For `CN(C)C(=O)c1cc2c(-c3ccc(C4CCN(c5ccc(N[C@H]6CCC(=O)NC6=O)cc5F)CC4)cc3)cc(C3=CCCN(C(=O)CCn4cccn4)C3)c(F)c2[nH]1` (single isomer, unassigned) [Example I-796], in assay [1] (HTRF binding), the pIC50 is > 7.00. In addition, at STAT6, the DC50 was < 1 nM and the greatest degradation seen (Dmax) lay within 70 to 90%.
Take `CN(C)C(=O)c1cc2c(-c3ccc(C4CCN(c5ccc(N[C@@H]6CCC(=O)NC6=O)cc5F)CC4)cc3)cc(C3=CCCN(C(=O)CCn4cccn4)C3)c(F)c2[nH]1` (single isomer, unassigned) [Example I-797]: the pIC50 in assay [1] (HTRF binding) is > 7.00. At STAT6, this molecule gave a DC50 of 1 to 10 nM and a Dmax of 70 to 90%.
For `COc1cc(N2CCN(CCOCC3CCN(c4ccnc(N5CC[C@@H]6[C@H]5CCCN6c5cccc(F)c5)c4)CC3)CC2)ccc1-c1cc(C2=CCCN(C(=O)CCn3ccnn3)C2)c(F)c2[nH]c(C(=O)N(C)C)cc12` [Example I-1049, 4-[4-(4-{2-[(1-{2-[(3aR,7aR)-4-(3-fluorophenyl)-hexahydro-2H-pyrrolo[3,2-b]pyridin-1-yl]pyridin-4-yl}piperidin-4-yl)methoxy]ethyl}piperazin-1-yl)-2-methoxyphenyl]-7-fluoro-N,N-dimethyl-6-{1-[3-(1,2,3-triazol-1-yl)propanoyl]-5,6-dihydro-2H-pyridin-3-yl}-1H-indole-2-carboxamide], the negative logarithm of the IC50 (pIC50) in assay [1] (HTRF binding) is > 7.00.

Values taken from patent US20260124309A1, “STAT6 DEGRADERS AND USES THEREOF” (Kymera Therapeutics, Inc., priority 2023, published 2026).
